{
  "source": "patent US6911319B2",
  "about": "“Methods and kits for detecting protein kinases” (Lumitech (UK) Limited, priority 2000, dated 2005)",
  "type_in_all_cases": "biochemical",
  "key": {"raf-1": {"tested_on": "raf-1", "experiment": "Bioluminescent protein kinase assay, raf-1 activation of inactive MEK-1", "details": "two different concentrations of PD098059; inactive MEK-1 as substrate"}, "MAPK-1/ERK-1": {"biological_target": "T1, MAPK-1/ERK-1 (Homo sapiens, UniProt P27361)", "T1 construct": "purchased UBI (Upstate Biotechnology)", "T1 sequence (P27361 whole entry)": "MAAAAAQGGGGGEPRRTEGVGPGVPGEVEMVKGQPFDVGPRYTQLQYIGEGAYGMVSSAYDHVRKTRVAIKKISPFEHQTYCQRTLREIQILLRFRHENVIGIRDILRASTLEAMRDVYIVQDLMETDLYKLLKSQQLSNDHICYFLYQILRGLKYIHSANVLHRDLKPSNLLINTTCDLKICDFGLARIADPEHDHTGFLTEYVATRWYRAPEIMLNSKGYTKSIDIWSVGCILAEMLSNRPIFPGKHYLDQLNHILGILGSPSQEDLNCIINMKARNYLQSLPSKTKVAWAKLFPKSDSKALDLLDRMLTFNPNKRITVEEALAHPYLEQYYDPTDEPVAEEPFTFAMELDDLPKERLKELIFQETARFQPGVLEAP", "experiment": "Bioluminescent protein kinase assay, MAPK-1 with MBP as substrate", "details": "30° C. for 30 minutes, MBP 2.72 μM", "experimental": "We also investigated the effect of genistein (Calbiochem) on MAPK-1 activity with MBP as substrate.\nThe assay buffer used was the same as for the SAP kinases (see above). The assay was performed in 100 μl volumes in a 96 well microtitre plate at 30° C. for 30 minutes. MBP (Calbiochem) was used at the same concentration as previously described (2.72 μM), with the activated MAPK1/ERK1 (UBI) used at a final concentration of 2.5U per100 μl reaction volume. The inhibitor was added at concentrations of 0, 0.1, 0.25, 0.5 and 1.0 μM, with 10 μl being added per well in 0.1% (v/v) DMSO.\nFor completeness, control samples with and without DMSO (0+DMSO and 0−DMSO, respectively) were also analysed to confirm that there was no effect of DMSO on the performance of the assay."}, "JNK2α2": {"biological_target": "T2, JNK2α2 (Homo sapiens, UniProt P45984)", "T2 construct": "purchased Upstate Discovery", "T2 sequence (P45984 whole entry)": "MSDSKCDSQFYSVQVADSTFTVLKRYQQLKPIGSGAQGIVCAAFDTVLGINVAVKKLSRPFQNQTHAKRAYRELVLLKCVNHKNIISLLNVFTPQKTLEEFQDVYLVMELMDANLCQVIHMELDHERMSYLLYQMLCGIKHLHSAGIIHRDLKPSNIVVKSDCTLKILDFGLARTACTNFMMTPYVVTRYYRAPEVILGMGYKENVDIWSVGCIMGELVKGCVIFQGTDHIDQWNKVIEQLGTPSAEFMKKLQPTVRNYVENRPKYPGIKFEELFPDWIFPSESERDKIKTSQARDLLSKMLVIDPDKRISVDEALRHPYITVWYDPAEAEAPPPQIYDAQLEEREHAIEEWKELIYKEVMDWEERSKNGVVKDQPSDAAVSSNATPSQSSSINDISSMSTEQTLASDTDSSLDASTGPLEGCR", "experiment": "Bioluminescent protein kinase assay, JNK2α2 with ATF-2 as substrate", "experimental": "The lower concentration had little effect, however 5 μM caused approximately 50% inhibition after 30 minutes at 30° C.\nThe above assay was performed in 200 μl volumes in plastic tubes in, a 30° C. waterbath. At each time point 20 μl samples were removed from the tubes and added to wells of a 96 well plate, followed by the addition of 20 μl of ATP detection reagent. The final concentration of ATP used was 12.5 μM, with JNK2α2 at 1.25 μM and ATF-2 at 2.55 μM."}, "[1]": {"biological_target": "luciferase-luciferin reaction (Photinus pyralis, UniProt P08659)", "sequence (P08659 whole entry)": "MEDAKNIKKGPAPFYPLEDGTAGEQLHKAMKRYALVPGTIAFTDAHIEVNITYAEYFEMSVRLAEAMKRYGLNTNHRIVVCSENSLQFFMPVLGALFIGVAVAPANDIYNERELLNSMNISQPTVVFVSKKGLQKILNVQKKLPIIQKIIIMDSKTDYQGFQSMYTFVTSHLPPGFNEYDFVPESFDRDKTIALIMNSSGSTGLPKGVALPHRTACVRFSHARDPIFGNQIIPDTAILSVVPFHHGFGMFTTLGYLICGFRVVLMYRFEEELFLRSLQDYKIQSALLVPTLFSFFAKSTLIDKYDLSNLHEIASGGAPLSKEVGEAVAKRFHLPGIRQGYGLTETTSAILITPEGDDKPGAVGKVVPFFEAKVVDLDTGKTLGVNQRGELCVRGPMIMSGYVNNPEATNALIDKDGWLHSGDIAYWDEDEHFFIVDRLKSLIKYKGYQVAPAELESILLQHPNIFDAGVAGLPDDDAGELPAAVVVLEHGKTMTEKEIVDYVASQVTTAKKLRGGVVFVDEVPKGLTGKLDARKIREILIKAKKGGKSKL", "experiment": "Effect of inhibitor on the bioluminescent ATP detection system", "details": "even at the highest concentration of the inhibitor; 10 μM ATP, 100 μl volumes, 96 well plate", "experimental": "We initially chose to look at a broad spectrum kinase inhibitor staurosporine (Calbiochem). Firstly, we tested the inhibitor (in DMSO) on the ATP detection reagent to ensure that the inhibitor would not affect the luciferase-luciferin reaction.\nThe results are presented as the means of triplicate wells±SD.\nThe experiment was performed using 10 μM ATP in 100 μl volumes in a 96 well plate with the addition of 20 μl of ATP detection reagent."}},
  "data": [
    {"compound": "COc1cccc(-c2cc(=O)c3ccccc3o2)c1N", "note": "[PD098059]", "values": [
      {"measurement": "light output in the presence of the inhibitor (indicating reduced kinase activity)", "setting": "raf-1", "result": "concentration dependent increase"}
    ]},
    {"compound": "O=c1c(-c2ccc(O)cc2)coc2cc(O)cc(O)c12", "note": "[genistein]", "values": [
      {"measurement": "effect on MAPK-1 activity", "setting": "MAPK-1/ERK-1; genistein 500 nM", "result": "an effect"},
      {"measurement": "effect on MAPK-1 activity", "setting": "MAPK-1/ERK-1; genistein 1 μM", "result": "increased inhibitory activity"}
    ]},
    {"compound": "CN[C@@H]1C[C@H]2O[C@@](C)([C@@H]1OC)n1c3ccccc3c3c4c(c5c6ccccc6n2c5c31)C(=O)NC4", "note": "[staurosporine]", "values": [
      {"measurement": "inhibition of JNK2α2 activity", "setting": "JNK2α2; 5 μM staurosporine, after 30 minutes at 30° C., ATP 12.5 μM, JNK2α2 1.25 μM, ATF-2 2.55 μM", "result": "approximately 50%"},
      {"measurement": "effect on JNK2α2 activity", "setting": "JNK2α2; the lower of two staurosporine concentrations, 30° C.", "result": "little effect"},
      {"measurement": "effect upon light output", "setting": "[1]", "result": "no significant effect"}
    ]}
  ]
}
